pIC50: −log10 of the molar value.

This test has as its target T1, Menin MLL 4-43 (Homo sapiens, UniProt O00255).
T1 sequence (O00255 1-610): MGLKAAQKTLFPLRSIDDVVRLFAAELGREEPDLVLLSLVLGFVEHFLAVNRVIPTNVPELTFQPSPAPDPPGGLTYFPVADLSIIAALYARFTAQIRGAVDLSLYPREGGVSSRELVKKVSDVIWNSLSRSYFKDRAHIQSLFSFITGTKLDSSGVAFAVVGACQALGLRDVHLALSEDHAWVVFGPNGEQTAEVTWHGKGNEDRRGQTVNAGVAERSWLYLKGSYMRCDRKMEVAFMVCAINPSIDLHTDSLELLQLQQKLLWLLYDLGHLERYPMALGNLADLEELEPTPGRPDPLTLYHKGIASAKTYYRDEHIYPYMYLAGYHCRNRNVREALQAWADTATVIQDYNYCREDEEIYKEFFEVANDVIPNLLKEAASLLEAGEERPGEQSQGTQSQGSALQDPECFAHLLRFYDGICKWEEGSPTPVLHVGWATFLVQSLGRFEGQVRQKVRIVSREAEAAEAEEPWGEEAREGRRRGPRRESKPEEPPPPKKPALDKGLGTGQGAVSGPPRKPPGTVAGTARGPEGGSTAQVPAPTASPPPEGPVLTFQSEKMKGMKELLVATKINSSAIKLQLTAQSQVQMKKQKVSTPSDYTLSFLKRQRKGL
Nature of the test: Fluorescence polarization (FP) competition assay of the menin-MLL interaction. Type of test: binding. Particulars: fluorescence polarization assay; read-out: Menin MLL 4-43 IC50. Background: Fluorescence polarisation rises when a labelled molecule tumbles more slowly, as on binding a larger partner.
With `Cc1c(CN2CCC(Nc3ncnc4sc(CC(F)(F)F)cc34)CC2)ccc2c1cc(C#N)n2CCN1CCC2(CCN(S(C)(=O)=O)C2)C1` (stereo not drawn) [Compound 53], the pIC50 (usually −log10 of the IC50, conventionally taken in molar units) was 6.00 to 7.70.

In the case of `Cc1c(CN2CCC(Nc3ncnc4sc(CC(F)(F)F)cc34)CC2)ccc2c1cc(C#N)n2CCN1CCC2(CC1)CN(S(C)(=O)=O)C2` [Compound 54], the pIC50 is 6.60 to 7.30.

`Cc1c(CN2CCC(Nc3ncnc4sc(CC(F)(F)F)cc34)CC2)ccc2c1cc(C#N)n2CCN1CC2CN(S(C)(=O)=O)CC2C1` (stereo not drawn) [Compound 55]: the pIC50 was 6.00 to 7.70.

On to `Cc1c(CN2CCC(Nc3ncnc4sc(CC(F)(F)F)cc34)CC2)ccc2c1cc(C#N)n2CCN1CC2(CCN(S(C)(=O)=O)CC2)C1` [Compound 56], for which the pIC50 was 6.00 to 7.70.

As for `Cc1c(CN2CCC(Nc3ncnc4sc(CC(F)(F)F)cc34)CC2)ccc2c1cc(C#N)n2CCN1CC2(C1)CN(S(C)(=O)=O)C2` [Compound 57], the pIC50 is 6.00 to 7.70.

On to `Cc1c(CN2CCC(Nc3ncnc4sc(CC(F)(F)F)cc34)CC2)ccc2c1cc(C#N)n2CCN1CC2(CCN(S(C)(=O)=O)C2)C1` [Compound 58], for which the negative logarithm of the IC50 (pIC50) was 6.00 to 7.70.

Take `Cc1c(CN2CCC(Nc3ncnc4sc(CC(F)(F)F)cc34)CC2)ccc2c1cc(C#N)n2CCC1CCN(S(C)(=O)=O)C(C)C1` (stereo not drawn) [Compound 59]: the pIC50 is 6.00 to 7.70.

`Cc1c(CN2CCC(Nc3ncnc4sc(CC(F)(F)F)cc34)CC2)ccc2c1cc(C#N)n2CCC1(C)CCN(S(C)(=O)=O)CC1` [Compound 60]: the pIC50 is under 6.00.

Regarding `Cc1c(CN2CCC(Nc3ncnc4sc(CC(F)(F)F)cc34)CC2)ccc2c1cc(C#N)n2CC1(N2CCN(S(C)(=O)=O)CC2)CC1` [Compound 61], the pIC50 is 6.60 to 7.30.

On to `Cc1c(CN2CCC(Nc3ncnc4sc(CC(F)(F)F)cc34)CC2)ccc2c1cc(C#N)n2CC(CO)N1CCN(S(C)(=O)=O)CC1` (stereo not drawn) [Compound 62], for which the pIC50 was under 6.00.

Take `CNS(=O)(=O)N1CCN([C@@H](C)Cn2c(C#N)cc3c(C)c(CN4CCC(Nc5ncnc6sc(CC(F)(F)F)cc56)CC4)ccc32)CC1` [Compound 64]: the pIC50 was over 7.30.

As for `Cc1c(CN2CCC(Nc3ncnc4sc(CC(F)(F)F)cc34)CC2)ccc2c1cc(C#N)n2C[C@H](C)N1CCN(C=O)CC1` [Compound 65], the pIC50 was over 7.30.

Consider `CNS(=O)(=O)N1CCN([C@H](C)Cn2c(C#N)cc3c(C)c(CN4CCC(Nc5ncnc6sc(CC(F)(F)F)cc56)CC4)ccc32)CC1` [Compound 66], for which the pIC50 is 6.00 to 7.70.

For the compound `Cc1c(CN2CCC(Nc3ncnc4sc(CC(F)(F)F)cc34)CC2)ccc2c1cc(C#N)n2C[C@@H](C)N1CCN(C=O)CC1` [Compound 67], the pIC50 is 6.00 to 7.70.

`CNC(=O)N1CCN([C@@H](C)Cn2c(C#N)cc3c(C)c(CN4CCC(Nc5ncnc6sc(CC(F)(F)F)cc56)CC4)ccc32)CC1` [Compound 68]: the pIC50 was 6.60 to 7.30.

For `Cc1c(CN2CCC(Nc3ncnc4sc(CC(F)(F)F)cc34)CC2)ccc2c1cc(C#N)n2C[C@H](C)N1CCN(S(=O)(=O)CCF)CC1` [Compound 69], the pIC50 was 6.60 to 7.30.

Consider `Cc1c(CN2CCC(Nc3ncnc4sc(CC(F)(F)F)cc34)CC2)ccc2c1cc(C#N)n2C[C@H](C)N1CCN(S(=O)(=O)CF)CC1` [Compound 70], for which the pIC50 is 6.60 to 7.30.

For the compound `Cc1c(CN2CCC(Nc3ncnc4sc(CC(F)(F)F)cc34)CC2)ccc2c1cc(C#N)n2C[C@@H](C)N1CCN(S(=O)(=O)CF)CC1` [Compound 71], the pIC50 was under 6.00.

As to `COC(=O)N1CCN([C@@H](C)Cn2c(C#N)cc3c(C)c(CN4CCC(Nc5ncnc6sc(CC(F)(F)F)cc56)CC4)ccc32)CC1` [Compound 72], the negative-log IC50 (pIC50) is 6.60 to 7.30.

As to `Cc1c(CN2CCC(Nc3ncnc4sc(CC(F)(F)F)cc34)CC2)ccc2c1cc(C#N)n2C[C@H](C)N1CCN(S(=O)(=O)NC2CC2)CC1` [Compound 73], the negative-log IC50 (pIC50) was over 7.30.

Take `[2H]C([2H])(C(C)N1CCN(S(C)(=O)=O)CC1)n1c(C#N)cc2c(C)c(CN3CCC(Nc4ncnc5sc(CC(F)(F)F)cc45)CC3)ccc21` (stereo not drawn) [Compound 74]: the pIC50 is 6.60 to 7.30.

As for `Cc1c(CN2CCC(Nc3ncnc4sc(CC(F)(F)F)cc34)CC2)ccc2c1cc(C#N)n2CC(C)N1CCN(S(C)(=O)=O)C(C(=O)O)C1` (stereo not drawn) [Compound 82], the pIC50 is 6.00 to 7.70.

Regarding `CNC(=O)C1CCN(C(C)Cn2c(C#N)cc3c(C)c(CN4CCC(Nc5ncnc6sc(CC(F)(F)F)cc56)CC4)ccc32)CC1` (stereo not drawn) [Compound 84], the pIC50 is 6.60 to 7.30.

With `Cc1c(CN2CCC(Nc3ncnc4sc(CC(F)(F)F)cc34)CC2)ccc2c1cc(C#N)n2C[C@H](C)N1CCN(S(=O)(=O)CCO)CC1` [Compound 85], the pIC50 was over 7.30.

On to `Cc1c(CN2CCC(Nc3ncnc4sc(CC(F)(F)F)cc34)CC2)ccc2c1cc(C#N)n2CC(C)N1CCN(S(=O)(=O)N(C)C)CC1` (stereo not drawn) [Compound 87], for which the pIC50 is 6.60 to 7.30.

Consider `Cc1c(CN2CCC(Nc3ncnc4sc(CC(F)(F)F)cc34)CC2)ccc2c1cc(C#N)n2CC(C)N1CCN(S(=O)(=O)NCCN)CC1` (stereo not drawn) [Compound 88], for which the pIC50 is over 7.30.

`Cc1c(CN2CCC(Nc3ncnc4sc(CC(F)(F)F)cc34)CC2)ccc2c1cc(C#N)n2C[C@H](C)N1CCN(S(=O)(=O)N(C)C)CC1` [Compound 89]: the pIC50 was over 7.30.

Consider `Cc1c(CN2CCC(Nc3ncnc4sc(CC(F)(F)F)cc34)CC2)ccc2c1cc(C#N)n2CC(C)N1CCC(S(C)(=O)=O)CC1` (stereo not drawn) [Compound 90], for which the negative logarithm of the IC50 (pIC50) was over 7.30.

`Cc1c(CN2CCC(Nc3ncnc4sc(CC(F)(F)F)cc34)CC2)ccc2c1cc(C#N)n2C[C@@H](C)N1C[C@@H](C)N(S(C)(=O)=O)[C@H](C)C1` [Compound 91]: the pIC50 is 6.60 to 7.30.

As to `Cc1c(CN2CCC(Nc3ncnc4sc(CC(F)(F)F)cc34)CC2)ccc2c1cc(C#N)n2C[C@H](C)N1C[C@@H](C)C(S(C)(=O)=O)[C@H](C)C1` [Compound 92], the pIC50 was over 7.30.

On to `C=CC(=O)Nc1ccc(C(C)Cn2c(C#N)cc3c(C)c(CN4CCC(Nc5ncnc6sc(CC(F)(F)F)cc56)CC4)ccc32)cn1` (stereo not drawn) [Compound 93], for which the pIC50 was over 7.30.

For the compound `Cc1c(CN2CCC(Nc3ncnc4sc(CC(F)(F)F)cc34)CC2)ccc2c1cc(C#N)n2CC(C)N1C2CCC1CN(S(C)(=O)=O)C2` (stereo not drawn) [Compound 94], the pIC50 was 6.60 to 7.30.

Regarding `Cc1c(CN2CCC(Nc3ncnc4sc(CC(F)(F)F)cc34)CC2)ccc2c1cc(C#N)n2C[C@H](C)N1CCN(S(=O)(=O)C2CC2)CC1` [Compound 115], the pIC50 is over 7.30.

Consider `Cc1c(CN2CCC(Nc3ncnc4sc(CC(F)(F)F)cc34)CC2)ccc2c1cc(C#N)n2C[C@H](C)N1CCN(S(=O)(=O)CC(C)C)CC1` [Compound 116], for which the pIC50 is 6.60 to 7.30.

With `Cc1c(CN2CCC(Nc3ncnc4sc(CC(F)(F)F)cc34)CC2)ccc2c1cc(C#N)n2C[C@H](C)N1CCN(C(=O)C2CC2)CC1` [Compound 117], the pIC50 is 6.60 to 7.30.

With `Cc1c(CN2CCC(Nc3ncnc4sc(CC(F)(F)F)cc34)CC2)ccc2c1cc(C#N)n2C[C@H](C)N1CCN(C(=O)C(F)(F)F)CC1` [Compound 118], the pIC50 was 6.00 to 7.70.

As for `CCNS(=O)(=O)N1CCN([C@@H](C)Cn2c(C#N)cc3c(C)c(CN4CCC(Nc5ncnc6sc(CC(F)(F)F)cc56)CC4)ccc32)CC1` [Compound 119], the pIC50 is over 7.30.

`Cc1c(CN2CCC(Nc3ncnc4sc(CC(F)(F)F)cc34)CC2)ccc2c1cc(C#N)n2C[C@H](C)N1CCN(S(=O)(=O)NCC(C)C)CC1` [Compound 120]: the pIC50 is 6.60 to 7.30.

Consider `Cc1c(CN2CCC(Nc3ncnc4sc(CC(F)(F)F)cc34)CC2)ccc2c1cc(C#N)n2C[C@H](C)N1CCN(S(=O)(=O)N2CCC2)CC1` [Compound 121], for which the pIC50 is 6.60 to 7.30.

For `Cc1c(CN2CCC(Nc3ncnc4sc(CC(F)(F)F)cc34)CC2)ccc2c1cc(C#N)n2C[C@H](C)N1CCN(C(=O)CC(F)(F)F)CC1` [Compound 122], the pIC50 is 6.60 to 7.30.

In the case of `COCCNS(=O)(=O)N1CCN([C@@H](C)Cn2c(C#N)cc3c(C)c(CN4CCC(Nc5ncnc6sc(CC(F)(F)F)cc56)CC4)ccc32)CC1` [Compound 123], the pIC50 was over 7.30.

Consider `Cc1c(CN2CCC(Nc3ncnc4sc(CC(F)(F)F)cc34)CC2)ccc2c1cc(C#N)n2CC(C)N1C[C@@H](C)N(S(=O)(=O)CF)[C@H](C)C1` (stereo partly drawn) [Compound 124], for which the pIC50 was 6.60 to 7.30.

As to `Cc1c(CN2CCC(Nc3ncnc4sc(CC(F)(F)F)cc34)CC2)ccc2c1cc(C#N)n2C[C@H](C)N1CCN(S(=O)(=O)NCC(F)F)CC1` [Compound 125], the pIC50 was 6.60 to 7.30.

On to `Cc1c(CN2CCC(Nc3ncnc4sc(CC(F)(F)F)cc34)CC2)ccc2c1cc(C#N)n2C[C@H](C)N1CCN(S(=O)(=O)CC(F)(F)F)CC1` [Compound 126], for which the pIC50 was 6.60 to 7.30.

Turning to `Cc1c(CN2CCC(Nc3ncnc4sc(CC(F)(F)F)cc34)CC2)ccc2c1cc(C#N)n2C[C@H](C)N1CCN(S(=O)(=O)C2CCC2)CC1` [Compound 127], the pIC50 was 6.60 to 7.30.

Consider `CNS(=O)(=O)C1CCN(C(C)Cn2c(C#N)cc3c(C)c(CN4CCC(Nc5ncnc6sc(CC(F)(F)F)cc56)CC4)ccc32)CC1` (stereo not drawn) [Compound 128], for which the pIC50 is 6.60 to 7.30.

In the case of `Cc1c(CN2CCC(Nc3ncnc4sc(CC(F)(F)F)cc34)CC2)ccc2c1cc(C#N)n2C[C@H](C)N1CCN(S(=O)(=O)NCCF)CC1` [Compound 129], the pIC50 was over 7.30.

Regarding `Cc1c(CN2CCC(Nc3ncnc4sc(CC(F)(F)F)cc34)CC2)ccc2c1cc(C#N)n2C[C@H](C)N1CCN(S(=O)(=O)NCC(F)(F)F)CC1` [Compound 130], the pIC50 is 6.60 to 7.30.

Source of the values: patent publication US11673898B2, “Substituted inhibitors of menin-MLL and methods of use” (Kura Oncology, Inc., priority 2016, dated 2023).
